Like-named read-outs stand apart in the source and are kept apart here.
What was measured:
Plasmodium falciparum = assay: Antimalarial activity in vitro, [3H]-hypoxanthine incorporation; assay type: cell-based; details: Plasmodium falciparum
Text: The antimalarial properties of the compounds of the invention can be analyzed by techniques, assays and experimental animal models well known in the art. For example, the inhibition of growth of Plasmodium falciparum in vitro by the compounds may be assessed by the hypoxanthine-incorporation method (Desjardins et al., 1979, Antimicrob. Ag. Chemother. 16:710-718). […] The in vivo efficacy of the compounds can also be tested in mouse models in which parasitemia is enumerated following administration of the compound (Ager, A. L. 1984, Rodent malaria models, pp 225-264. In Handbook of Experimental Pharmacology vol. 68, Antimalarial Drugs, Peters and Richards eds, Springer-Verlag, Berlin).
The antimalarial activity of the compounds was determined essentially as described in Desjardins et al. supra. Fifty μl of various concentrations of a compound of the invention, chloroquine, or pyrimethamine were added to the wells of microtiter plates, followed by 200 μl of ring-stage, synchronized, P. falciparum-infected erythrocytes (final hematocrit=1.5%, final parasitemia=1-5%). The plates were incubated for 24 hr in a candle jar kept at 37° C., and then 25 μl of [^3H]-hypoxanthine (Amersham, Arlington Heights, ILL.; 2.5 μl Ci/well) was added. The plates were then incubated for a further 24 hr, before harvesting onto Unifilter-96 GF/C filter-microplates (Packard; Meriden, Conn.). Twenty-five μl of Microscint scintillation fluid (Packard) was added to each well of the filter-microplate, which was subsequently counted in a Top-count microplate scintillation counter (Packard). The percent of [^3H]-hypoxanthine uptake relative to control infect-erythrocytes was used to determine the IC50 value for the compounds by non-linear regression for LD50 determination.

[1] = tested on: monocyte and T lymphocyte cultures; assay: Cytotoxicity in monocyte and T lymphocyte cultures in vitro; assay type: cell-based
[2] = tested on: nucleoplasmin-coated gold particles; assay: Nuclear import of nucleoplasmin-coated gold particles
HIV-1 [3] = assay: Reverse transcription of HIV-1 in infected cells; assay type: cell-based
[4] = biological target: T1, HIV-1 pre-integration complex (MA / HIV-1 cDNA) (Human immunodeficiency virus type 1 group M subtype B, UniProt P05890+P05959); assay: Association of MA with HIV-1 cDNA (anti-MA immunoprecipitation of viral DNA); assay type: biochemical; details: 10 μM (FIG. 13A)
T1 construct: MA is made from the Gag precursor and RT is made from the Gag-Pol precursor; endogenous in cells; host or cells: cytoplasmic extract of H9 cells infected with HIV-1RF
Protocol: Cytoplasmic extracts prepared from H9 cells infected with HIV-1RF were treated with 10 μM CNI-H0294 (lanes 2, 3, and 4) or left untreated (lane 1). Samples were divided into two aliquots. One aliquot was mixed with GST-karyopherin α immobilized on Sepharose beads and the HIV-1 DNA that bound was quantified by PCR. The second aliquot was immunoprecipitated (IP) with anti-MA serum (αMA, lane 3) or with pre-immune serum (NSS, lane 4) as control.
To test this hypothesis, cytoplasmic lysates of HIV-1-infected H9 cells were treated with CNI-H0294 and mixed with immobilized karyopherin α or subjected to immunoprecipitation with antibodies that bind MA.

HIV-1 [5] = assay: AZT and Compound No. 2 in combination, HIV-1 infected monocyte cultures, RT activity; assay type: cell-based; details: for reverse transcriptase activity in supernatant: 100 nM Compound No. 2, AZT 0
Protocol: Primary human monocytes were obtained from peripheral blood by Ficoll-Hypaque centrifugation and adherence to plastic as described previously. Gartner S. P., et al., 1986, Science 233:215. Briefly, after Ficoll-Hypaque (Pharmacia) separation, PBMCs were washed 4 times with DMEM (the last wash was done at 800 rpm to remove platelets) and resuspended in monocyte culture medium [DMEM supplemented with 1 mM glutamine, 10% heat-inactivated human serum, 1% penicillin+streptomycin mixture (Sigma)] at a density of 6×10^6 cells/ml. Cells were seeded in 24-well plates (1 ml per well) and incubated for 2 h at 37° C, 5% CO2. Following incubation, cells were washed 3 times with DMEM to remove non-adherent cells and incubation was continued in monocyte culture medium supplemented with 250 U/ml human M-CSF (Sigma). Cells were allowed to mature for 7 days prior to infection with the monocyte-tropic strain, HIV-1ADA. Nuovo, G. J., et al., 1992, Diagn. Mol. Pathol. 1:98. Two hours after infection, cells were washed with medium and cultured in RPMI supplemented with 10% human serum. In experiments where PCR analysis was performed, virus was pretreated with RNAse-free DNAse (Boehinger-Mannheim) for 2 h at room temperature and then filtered though a 0.2 μm pore nitrocellulose filter prior to infection.
For the reverse transcriptase (RT) assay, 10 μl of culture supernatant was added to 40 μl of reaction mixture (final composition was 50 mM Tris-HCl, pH 7.8; 20 MM KCl; 5 MM MgCl2; 1 mM DTT; 0.1% Triton X-100; 0.2 OD/ml polyA; 0.2 OD/ml oligo(dT)12-18; and 40 μCi/ml ^3H-dTTP (76 Ci/mmol, DuPont) and incubated 2 hr at 37° C. 5 μl of the reaction mixture was then spotted onto the DE 81 (Whatman) paper. Paper was air dried and washed 5 times with 5% Na2HPO4, followed by rinsing with distilled water. After air drying, paper was put on a Flexi Filter plate (Packard), covered with scintillation fluid and counted in a Top Count Microplate Counter (Packard). Results are expressed as counts per minute in 1 ml of supernatant (cpm/ml).
In view of these premises, the effects on HIV-1 replication in human monocyte cultures of the various concentrations of AZT, alone or in combination with 100 nM Compound No. 2, were tested using the protocols of Sections 6.2.1 and 6.2.2. Drugs were added to the monocyte cultures together with HIV-1 at about 10^5 TCID/ml. The concentration of drugs was maintained on refeeding. HIV-1 replication was assessed by assay of the supernatant for reverse transcriptase activity. The results are expressed as mean ± std. dev. (cpm×10^−3) in Table V.

Row | Compound | IC50 (Plasmodium falciparum; FCR3, clone FCR-3, ± standard deviation, read-out: IC50) | IC50 (Plasmodium falciparum; HB3, clone HB3, ± standard deviation, read-out: IC50) | IC50 (Plasmodium falciparum; clone D10, ± standard deviation, read-out: IC50) | IC50 (Plasmodium falciparum; series of cloned parasites with different sensitivities to chloroquine or pyrimethamine, read-out: median inhibitory concentration (IC50)) | 50% toxic dose [1] | block of nuclear import of nucleoplasmin-coated gold particles [2] | inhibition of reverse transcription of HIV-1 in infected cells (HIV-1 [3]) | immunoprecipitation of viral DNA with anti-MA serum [4] | reverse transcriptase activity in supernatant (HIV-1 [5]; day-7) | reverse transcriptase activity in supernatant (HIV-1 [5]; day-11) | reduction in RT activity (HIV-1 [5]; day-11, 100 nM Compound No. 2 alone)
1 | CC(=O)c1cc(Nc2cc(C)[n+](C)c(N)n2)cc(C(C)=O)c1 [CNI-0294, 2-Amino-4-(3,5-diacetylphenyl)amino-1,6-dimethylpyrimidinium chloride] | 3.09 ± 0.3 µM | 1.79 ± 0.27 µM | 4 ± 0.41 µM | 1.79 to 4 µM | > 1 mM | did not block | did not significantly inhibit | did not prevent immunoprecipitation of viral DNA with anti-MA serum |  |  | 
2 | CC(=O)c1cc(Nc2cc(C)[n+](C)c(N)n2)cc(C(C)=O)c1.[I-] [Compound No. 2, 2-amino-4-(3,5-diacetylphenyl)amino-1,6-dimethylpyrimidinium iodide] |  |  |  |  |  |  |  |  | 0.37 ± 0.07 cpm×10^−3 | 0.72 ± 0.30 cpm×10^−3 | ~60%

From patent US6649797B2, “Compounds and methods of use to treat infectious diseases” (The Picower Institute for Medical Research, priority 1996, dated 2003)
